Assay results from US20180055816A1, “PYRANONAPHTHOQUINONE COMPOUNDS AND METHODS OF USE THEREOF” (University of Kentucky Research Foundation, priority 2016, published 2018).

What was measured:
HCT116 cells = assay: Cell growth / cytotoxicity in HCT116 cells; assay type: cell-based, human; settings: HCT116; 0.5 μM FB or UCF76-A versus 100 nM rapamycin, 0.5 μM AZD8055
Procedure: Compounds that pass this single dose filter are then tested in a CRC (HCT116) in vitro cytotoxicity assay and, in parallel, an in vitro assay to assess propensity for intracellular reactive oxygen species (ROS) production using the redox sensitive probe CeIIROX® Deep Red reagent (Invitrogen) by flow cytometry analysis (47).
Cell growth was assessed as described previously. Briefly, 5×10^4 cells were seeded in 6-well plates in triplicates. After 24 h, cells were treated with the indicated compounds and incubated at 37° C. The cells were cultured for 3 days and the number of viable cells was counted using the Vi-CELL XR 2.03 (Beckman Coulter, Brea, Calif.). For apoptosis, cells were analyzed by flow cytometry using the Annexin V-FITC Apoptosis Detection Kit according to the manufacturer's protocol (BD Biosciences, San Jose, Calif.).

4E-BP1 phosphorylation [1] = assay: 4E-BP1 phosphorylation in DLD-1 colon cancer cells (Western blot); assay type: cell-based, human; settings: DLD-1 cells, 2 μM, 12 hours
Procedure: (§1) Cells were treated with 100 nM rapamycin, 0.5 μM AZD8055, 2 μM FB, 2 μM UCF76-A or DMSO control for 12 hours followed by Western blot analysis for the indicated proteins.
(§2) Cells were lysed in NP-40 lysis buffer (50 mM Tris-HCl, pH 7.5, 150 mM NaCl, 1 mM EDTA, 1% NP-40, 10% glycerol, protease and phosphatase inhibitor cocktail). Western blot analysis were performed using equivalent total protein loadings as described previously. For immunoprecipitation, the cell lysates were incubated with the indicated antibody overnight followed by incubation with a 50% slurry of protein G sepharose beads for 3 h at 4° C. The beads were washed three times with the lysis buffer, and the immunoprecipitated protein complexes were resuspended in 2× Laemmli sample buffer followed by western blot analysis.

[2] = tested on: cap-dependent translation; assay: Cap-dependent translation bicistronic luciferase reporter assay in HCT116 cells; assay type: cell-based, human; settings: 12 h
Prx1 [3] = molecular target: T1, Prx1 (Homo sapiens, UniProt Q06830); assay: Affinity pull-down / binding to Prx1; design: endogenous in cells; host or cells: HeLa cell lysates; HCT116 cell lysates; settings: streptavidin pull-down, competition, Western blot
T1 sequence (Q06830 1-199): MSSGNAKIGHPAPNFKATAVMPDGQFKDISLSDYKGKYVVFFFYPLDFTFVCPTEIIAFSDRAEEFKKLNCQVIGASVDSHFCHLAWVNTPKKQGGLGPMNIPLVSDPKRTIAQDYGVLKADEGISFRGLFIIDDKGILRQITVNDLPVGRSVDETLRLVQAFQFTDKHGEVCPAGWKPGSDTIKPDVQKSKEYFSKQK
Procedure: The precipitates were resolved by SDS-PAGE, and the gel was stained with Coomassie blue. (C) Sequences illustrating amino acids and peptides of Prx1 and Grx3 identified by mass spectrometry analysis. The unique bands as shown by d7-pull down in the experiment for FIG. 20B were excised and subjected to in-gel tryptic digestion and analysis by MS, wherein the identified amino acids and peptides are shown in red characters. (D) Western blot illustrating that HCT116 cell lysates were incubated with different concentrations of d5 or d7 in the absence or presence of a ten-fold excess of FB for 3 h, followed by pull-down with streptavidin-agarose and Western blot analysis for the indicated proteins.
FIGS. 21A-D show images illustrating that the active probe d7 binds to and co-localizes with Prx1 and Grx3. (A) and (B) The recombinant Prx1 (A) or Grx3 (B) was incubated with d7 for 2 hours, followed by streptavidin pull down and Western blot analysis for the indicated proteins. (C) and (D) HCT116 cells were incubated with 25 μM d5, 25 μM d7 or DMSO as control for 5 hours, followed by confocal sections of the cells staining for Prx1 (C) or Grx3 (D) (red), biotin (green) and DAPI (blue). Scale bars, 10 μm.
HeLa cell pellets were purchased from National Cell Culture Center (Minneapolis, Minn.) and lysed in 20 ml of the NP-40 lysis buffer. […]

Prx1 [4] = molecular target: T1, Prx1; assay: Prx1 catalytic activity inhibition; assay type: biochemical; settings: recombinant Prx1, 1 hour incubation
Procedure: The recombinant Prx1 protein was incubated with the indicated concentration of FB, 12, or conoidin A for 1 hour. Data are presented as mean±s.e.m. (n=3 technical replicates per condition). […]. Statistical significance was determined by the Student's t-test.
Prx1 and Grx3 are antioxidant enzymes known to regulate oxidative stress. Prx1 catalyzes peroxide reduction of H2O2, whereas Grx3 functions as glutathione (GSH)-dependent oxidoreductase by participating in the conversion of reduced GSH to oxidized glutathione disulfide (GSSG). […] While Grx3 biochemical assays are lacking, FB and active analogs could lead to a decrease in GSH levels and an increase in GSSG levels in HCT116 cells (FIGS. 23A-B). As antioxidant enzymes utilize cysteine-containing active sites to reduce various cellular peroxide or disulfide substrates, the role of Prx1/Grx3 cysteines in FB ligand-binding was assessed through replacing their cysteines to alanines. […] Finally, mass spectrometry analysis confirmed the covalent modification of Prx1 and Grx3 by FB at these specific target sites. These cumulative studies provide strong validation of Prx1 and Grx3 as the predominate molecular targets of PNQs in cancer cells.

AKT phosphorylation = AKT phosphorylation in HCT116 cells (Western blot); assay type: cell-based, human; settings: HCT116, 12 h; 2 μM FB or UCF76-A, 0.5 μM AZD8055, 1 μM MK2206
Procedure: (§3) HCT116 cells were treated with 1 μM MK2206 and 100 nM PD0325901 alone and in combination, 100 nM rapamycin, 0.5 μM AZD8055, 2 μM UCF76-A or 2 μM FB for 12 h followed by Western blot analysis for the indicated proteins.
as §2

4E-BP1 phosphorylation [5] = assay: 4E-BP1 phosphorylation in MDA-MB-231 breast cancer cells (Western blot); assay type: cell-based, human; settings: MDA-MB-231 cells, 2 μM, 12 hours
Procedure: as §1, §2

p70S6K phosphorylation = p70S6K phosphorylation in HCT116 cells (Western blot); assay type: cell-based, human; settings: HCT116, 12 h; 2 μM FB or UCF76-A, 100 nM rapamycin, 0.5 μM AZD8055
Procedure: as §3, §2

SMILES: CCCC1OC2CC(=O)OC2C2=C1C(=O)c1c(O)cccc1C2=O (centres unmarked) [FB, frenolicin B]
- inhibition of CRC cell growth compared with mTOR inhibitors (HCT116 cells): more potent than mTOR inhibitors
- inhibition of 4E-BP1 phosphorylation (4E-BP1 phosphorylation [1]): selectively inhibit
- inhibition of cap-dependent translation [2]: effectively inhibit
- binding to Prx1 (Prx1 [3]): directly targets
- inhibition of Prx1 catalytic activity (Prx1 [4]): potently inhibit
- inhibition of AKT phosphorylation (AKT phosphorylation): did not inhibit
- inhibition of 4E-BP1 phosphorylation (4E-BP1 phosphorylation [5]): selectively inhibit
- inhibition of p70S6K phosphorylation (p70S6K phosphorylation): only weakly inhibited
